In patent US20250059232A1, “PENTAPEPTIDE AND USE THEREOF” (ENSOL BIOSCIENCES INC., priority 2021, published 2025):

Assays:
PC3 = PC3 cell viability (CCK-8) in NK92 co-culture with anti-PD-1; assay type: cell-based, human; settings: 100 or 300 uM with 10 μg/ml anti-PD-1, 48/72 hours, P<0.05
Protocol: The experiment described below was performed to evaluate the tumor cell proliferation inhibitory effect of the combination treatment of the peptide of Example 1 and anti-PD-1, which is another immune checkpoint inhibitor. First, 5×10^3 cells of a human prostate cancer cell line PC3 were seeded in 96 wells and stabilized by culturing overnight. Next, 5×10^3 NK92 cells were additionally seeded, and the test cells were treated with 10 μg/ml of the anti-PD-1 and 100 or 300 uM of the peptide of Example 1 for each condition. After 48/72 hours of co-culturing, the NK92 cells were removed by washing, and the cell viability of the PC3 cells was measured by CCK-8 addition. FIG. 18 is a graph illustrating changes in PC3 cell viability over culturing time for each test group in an anticancer effect evaluation test. In FIG. 18, the x-axis represents culturing time and the y-axis represents cell viability (%).

MDA-MB-231 = MDA-MB-231 cell viability (CCK-8) in NK92 co-culture with anti-PD-L1; assay type: cell-based, human; settings: 300 uM with 10 ug/ml anti-PD-L1, 24/48/72 hours of co-culturing
Protocol: (§1) The experiment described below was performed to evaluate the tumor cell proliferation inhibitory effect of the combination treatment of the peptide of Example 1 and the anti-PD-L1, which is an immune checkpoint inhibitor. First, 5×10^3 cells of a human prostate cancer cell line PC3, 5×10^3 cells of a human lung cancer cell line A549 (Korean Cell Line Bank), and 1×10^4 cells of a human triple negative breast cancer cell line MDA-MB-231 (ATCC) were seeded in 96 wells and stabilized by culturing overnight. Then, the seeded cells were treated with 10 ug/ml of the anti-PD-L1 and 300 uM of the peptide of Example 1, for each condition while NK92 cells for 5×10^3 cells of each of the PC3 cell line and the MDA-MB-231 cell line and 2.5×10^3 cells of the A549 cell line were additionally seeded. After 24/48/72 hours of co-culturing (for PC3 and MDA-MB-231) and 24/48 hours of co-culturing (for A549), the NK92 cells were removed by washing, and the cancer cell viability was measured by CCK-8 addition. FIG. 15 is a graph illustrating the changes in PC3 cell viability over culturing time for each test group in an anticancer effect evaluation test. In FIG. 15, the x-axis represents culturing time and the y-axis represents cell viability (%). FIG. 16 is a graph illustrating the changes in A549 cell viability over culturing time for each test group in an anticancer effect evaluation test. […]

[1] = tested on: PC3 cells co-cultured with NK92 cells; experiment: PC3/NK92 co-culture: Western blot of LC3II and cleaved PARP; assay type: cell-based, human; settings: 300 uM with 10 μg/ml anti-PD-L1
Protocol: In addition, the expression of LC3II, which is an autophagy marker, and the expression of cleaved PARP, which is a cell death marker, were determined by a Western blot test. 1×10^6 PC3 cells were seeded in 6 wells and stabilized by culturing overnight, and the PC3 cells were treated with 10 μg/ml of the anti-PD-L1 and 300 uM of the peptide of Example 1 for each condition while the same number of NK92 cells were additionally seeded. After a predetermined period of treatment, the NK92 cells were removed by washing, and proteins were isolated from the tumor cells to determine LC3II (12 h) and PARP (24 h) expression changes. The expression amounts of each marker were calculated as proportions relative to the control. FIG. 13 is a graph showing the amount of cleaved PARP expression compared to PARP for each test group in the anticancer effect evaluation test in which the x-axis represents test groups and the y-axis represents the amount (%) of cleaved PARP expression compared to the PARP. FIG. 14 is a graph showing the amount of LC3II expression compared to actin for each test group in an anticancer effect evaluation test, in which the x-axis represents test groups, and the y-axis represents the amount (%) of LC3II expression compared to actin in the test group.

[2] = tested on: PC3 cells co-cultured with NK92 cells; experiment: PC3/NK92 co-culture: Granzyme B expression by immuno-fluorescence staining; assay type: cell-based, human; settings: 300 uM with 10 μg/ml anti-PD-L1; 12 hours
Protocol: The experiment described below was performed to identify the tumor suppression mechanism of the combination treatment of the peptide of Example 1 and anti-PD-L1, which is an immune checkpoint inhibitor. First, prostate cancer cell lines PC3 (ATCC) and NK92 (Immunotherapy Research Center, Korea Research Institute of Bioscience and Biotechnology) were co-cultured. 7.8×10^4 PC3 cells were seeded in 4-well chambers and stabilized by culturing overnight, and the PC3 cells were treated with 10 μg/ml of the anti-PD-L1 and 300 uM of the peptide of Example 1 for each condition while the same number of NK92 cells were additionally seeded. After 12 hours, the NK92 cells were removed by washing, and only tumor cells were fixed. Next, the expression level of Granzyme B was determined through immuno-fluorescence staining. The Granzyme B expression levels were calculated as proportions relative to the control. FIG. 12 is a graph showing a Granzyme B expression level for each test group in an anticancer effect evaluation test, in which the x-axis represents the test group and the y-axis represents the Granzyme B expression level (%) relative to the control group.

A549 = A549 cell viability (CCK-8) in NK92 co-culture with anti-PD-L1; assay type: cell-based, human; settings: 300 uM with 10 ug/ml anti-PD-L1, 24/48 hours of co-culturing
Protocol: as §1

EL4 = EL4 cell viability (CCK-8) with doxorubicin; assay type: cell-based, mouse; settings: 300 uM with doxorubicin 20 nM; 24 hours; p<0.05
Protocol: In order to investigate the cell viability by the combined administration of doxorubicin and the peptide of Example 1 compared to the group administered with only doxorubicin, which is an anticancer chemotherapeutic agent, experiments described below were conducted. 8×10^3 Cells of the mouse lymphoma cell line EL4 (ATCC) were seeded in 96 wells, which then were treated with doxorubicin 20 nM and peptide 300 uM of Example 1 for each condition. After 24 hours of culturing, the cell viability of the EL4 cells was measured by CCK-8 addition. FIG. 11 is a graph illustrating the changes in EL4 cell viability over culturing time in an anticancer effect evaluation test. In FIG. 11, the x-axis represents culturing time and the y-axis represents cell viability (%).

Substance: Ac-QLHLD-OH [Example 1, acetyl-QLHLD]
- Cancer cell viability compared to the checkpoint-inhibitor-only group (PC3): significant decrease
- Cancer cell viability compared to the group treated with only anti-PD-L1 (MDA-MB-231): significant decrease in cancer cell viability
- LC3II expression compared to the group treated with only anti-PD-L1 ([1]; 12 h, P<0.001): significantly decreased
- Cleaved PARP expression compared to the group treated with only anti-PD-L1 ([1]; 24 h, P<0.05): significantly increased
- Granzyme B expression in tumor cells compared to the group treated with only anti-PD-L1 [2]: increased significantly
- Cancer cell viability compared to the group treated with only anti-PD-L1 (A549): significant decrease in cancer cell viability
- Cancer cell viability compared to the group treated with only doxorubicin (EL4): significant decrease in cancer cell viability
